Assay [1] is described as follows: Modulation of PI3K/AKT/mTOR signalling pathway in human MIA PaCa-2 cells in DMEM medium assessed as decrease in mTOR phosphorylation at 5 uM measured for 6 hrs by Western blot analysis. The settings on record: filed as modulator. The format is cell-based.
Assay [2] can be described thus: Modulation of PI3K/AKT/mTOR signalling pathway in human MIA PaCa-2 cells in DMEM medium assessed as decrease in Akt phosphorylation at 5 uM measured for 6 hrs by Western blot analysis. The following applies: filed as modulator. It counts as cell-based. A general note: A western blot detects proteins with antibodies after separation by electrophoresis.
The test system of assay [3] is MIA PaCa-2. The experiment in a line: Preferential cytotoxicity against human MIA PaCa-2 cells in nutrient-deprived medium measured after 24 hrs by WST-8 cell counting analysis. The format is functional. On the technique in general: Tetrazolium assays rely on reduction of a dye to a coloured formazan, in cell work by metabolically active cells.
A short description of assay [4]: Selectivity index, ratio of IC50 for preferential cytotoxicity against human MIA PaCa-2 cells in DMEM to PC50 for preferential cytotoxicity against human MIA PaCa-2 cells in nutrient-deprived medium. The format is functional.
Assay [5] concerns PANC-1. The experiment in a line: Preferential cytotoxicity against human PANC-1 cells in nutrient-deprived medium measured after 24 hrs by WST-8 cell counting analysis. The format is functional.
Assay [6] deals with PANC-1. The experiment in a line: Preferential cytotoxicity against human PANC-1 cells in DMEM measured after 24 hrs by WST-8 cell counting analysis. The format is functional, cell-based. The settings on record: PANC-1, 24 h.
In assay [7] the test system is MIA PaCa-2. The experiment in a line: Preferential cytotoxicity against human MIA PaCa-2 cells in nutrient-deprived medium assessed as alteration in cell morphology by measuring cell rounding at 0.5 to 1 uM measured after 24 hrs by acridine orange and ethidium bromide dual fluorescent staining based microscopic analysis. It counts as functional. The settings on record: dose 0.5-1 µM.

For assay [8], the system named is MIA PaCa-2. The experiment in a line: Preferential cytotoxicity against human MIA PaCa-2 cells in nutrient-deprived medium assessed as alteration in cell morphology by measuring membrane blebbing at 0.5 to 1 uM measured after 24 hrs by acridine orange and ethidium bromide dual fluorescent staining based microscopic analysis. It counts as functional. The settings on record: dose 0.5-1 µM.

The subject of assay [9] is MIA PaCa-2. The experiment in a line: Preferential cytotoxicity against human MIA PaCa-2 cells in nutrient-deprived medium assessed as alteration in cell morphology by measuring membrane rupture at 0.5 to 1 uM measured after 24 hrs by acridine orange and ethidium bromide dual fluorescent staining based microscopic analysis. It counts as functional. The settings on record: dose 0.5-1 µM.

Assay [10] has as its system MIA PaCa-2. The experiment in a line: Antimetastatic activity in human MIA PaCa-2 cells in DMEM media assessed as inhibition of cell migration at 10 uM incubated for 18 hrs relative to control (reference value: 64%). It counts as functional.
Assay [11] deals with MIA PaCa-2. The experiment in a line: Antimetastatic activity in human MIA PaCa-2 cells in DMEM media assessed as inhibition of cell migration at 10 uM incubated for 36 hrs relative to control (reference value: 30%). It counts as functional.
Assay [12] has as its system MIA PaCa-2. The experiment in a line: Induction of endoplasmic reticulum (ER) stress in human MIA PaCa-2 cells assessed as change in TRB3 level at 5 uM measured after 6 hrs by Western blot analysis. It counts as functional, cell-based.
Assay [13] has as its system MIA PaCa-2. The experiment in a line: Induction of endoplasmic reticulum (ER) stress in human MIA PaCa-2 cells in NDM medium assessed as change in TRB3 level at 5 uM measured after 6 hrs by Western blot analysis. It counts as functional, cell-based.
Assay [14] deals with MIA PaCa-2. The experiment in a line: Antitumor activity against human MIA PaCa-2 cells xenografted in BALB/c/Nu/Nu mouse assessed as tumor volume at 20 mg/kg, ip administered 5 times a week for 4 weeks and measured on day 32 (reference value: 1417 mm3). It counts as functional. The following applies: time 32 day.
In another assay the test system is Mus musculus. The experiment in a line: In-vivo modulation of PI3K/AKT/mTOR signalling pathway in human MIA PaCa-2 cells xenografted in BALB/c/Nu/Nu mouse assessed as downregulation of TRB3 level at 60 mg/kg, ip administered 5 times a week for 4 weeks in presence of gemcitabine by Western blot analysis. The format is functional, organism-based. Background: A xenograft is tissue or cells of one species grown in another, often human tumour cells in immunodeficient mice.

Assay [15] has as its system MIA PaCa-2. The experiment in a line: Antitumor activity against human MIA PaCa-2 cells xenografted in BALB/c/Nu/Nu mouse assessed as reduction in tumor cell density at 60 mg/kg, ip administered 5 times a week for 4 weeks by H and E staining based analysis. It counts as functional, organism-based.

Activity calls are given as the source filed them. No cut-off for these calls is given here.

As a reminder, the IC50 is the concentration needed to halve the response being measured. A word on the inhibition: it is the drop in the measured response relative to a control, in per cent.

Regarding `CC(C)=CCCC1=CC[C@H](C(=O)c2c(O)cccc2O)[C@@H](c2cccc(F)c2F)C1` (relative stereo), the outcome (in assay [1]; in [2]; in the assay with MIA PaCa-2 [7]; with MIA PaCa-2 [8]; with MIA PaCa-2 [9]; in the assay on MIA PaCa-2 [12]) was Active. For the same compound, the outcome in the assay on MIA PaCa-2 [13], with Mus musculus and in the assay on MIA PaCa-2 [15] was Active. Further, the PC50 with MIA PaCa-2 [3] worked out at 0.34 µM; with PANC-1 [5], 0.23 µM. In addition, in assay [4], the “Selectivity Index” value amounted to 176. This compound also registered an IC50 in the assay on PANC-1 [6] of 9.2 µM. For the same compound, the inhibition at 10 µM came to 92% with MIA PaCa-2 [10] and 77% in the assay with MIA PaCa-2 [11]. In the assay with MIA PaCa-2 [14], the Activity is 879 mm3.

For the origin of these results see ChEMBL document CHEMBL5576134, “Targeting Pancreatic Cancer with Novel Nicolaioidesin C Derivatives: Molecular Mechanism, In Vitro, and In Vivo Evaluations” (J Med Chem, 2024).
